Where two headings read alike, the source gives them in different places. Marks after values point to notes of the source that are not given here.
Key:
[1] = biological target: T1, NR2B containing NMDA receptors (rat cortical cells) (Rattus norvegicus, UniProt P35439+Q00960); assay: NMDA antagonist potency by intracellular calcium measurement with plate reader fluorimeter in rat cortical cell culture; type: cell-based; settings: fluorimetric method
T1 construct: The cells at this in vitro age are believed to express predominantly NR2B containing NMDA receptors; endogenous in cells; host or cells: primary neocortical cell culture from 17 day old rat embryos, 3-7 days in vitro
T1 sequence (Q00960 27-1482, other chains not shown): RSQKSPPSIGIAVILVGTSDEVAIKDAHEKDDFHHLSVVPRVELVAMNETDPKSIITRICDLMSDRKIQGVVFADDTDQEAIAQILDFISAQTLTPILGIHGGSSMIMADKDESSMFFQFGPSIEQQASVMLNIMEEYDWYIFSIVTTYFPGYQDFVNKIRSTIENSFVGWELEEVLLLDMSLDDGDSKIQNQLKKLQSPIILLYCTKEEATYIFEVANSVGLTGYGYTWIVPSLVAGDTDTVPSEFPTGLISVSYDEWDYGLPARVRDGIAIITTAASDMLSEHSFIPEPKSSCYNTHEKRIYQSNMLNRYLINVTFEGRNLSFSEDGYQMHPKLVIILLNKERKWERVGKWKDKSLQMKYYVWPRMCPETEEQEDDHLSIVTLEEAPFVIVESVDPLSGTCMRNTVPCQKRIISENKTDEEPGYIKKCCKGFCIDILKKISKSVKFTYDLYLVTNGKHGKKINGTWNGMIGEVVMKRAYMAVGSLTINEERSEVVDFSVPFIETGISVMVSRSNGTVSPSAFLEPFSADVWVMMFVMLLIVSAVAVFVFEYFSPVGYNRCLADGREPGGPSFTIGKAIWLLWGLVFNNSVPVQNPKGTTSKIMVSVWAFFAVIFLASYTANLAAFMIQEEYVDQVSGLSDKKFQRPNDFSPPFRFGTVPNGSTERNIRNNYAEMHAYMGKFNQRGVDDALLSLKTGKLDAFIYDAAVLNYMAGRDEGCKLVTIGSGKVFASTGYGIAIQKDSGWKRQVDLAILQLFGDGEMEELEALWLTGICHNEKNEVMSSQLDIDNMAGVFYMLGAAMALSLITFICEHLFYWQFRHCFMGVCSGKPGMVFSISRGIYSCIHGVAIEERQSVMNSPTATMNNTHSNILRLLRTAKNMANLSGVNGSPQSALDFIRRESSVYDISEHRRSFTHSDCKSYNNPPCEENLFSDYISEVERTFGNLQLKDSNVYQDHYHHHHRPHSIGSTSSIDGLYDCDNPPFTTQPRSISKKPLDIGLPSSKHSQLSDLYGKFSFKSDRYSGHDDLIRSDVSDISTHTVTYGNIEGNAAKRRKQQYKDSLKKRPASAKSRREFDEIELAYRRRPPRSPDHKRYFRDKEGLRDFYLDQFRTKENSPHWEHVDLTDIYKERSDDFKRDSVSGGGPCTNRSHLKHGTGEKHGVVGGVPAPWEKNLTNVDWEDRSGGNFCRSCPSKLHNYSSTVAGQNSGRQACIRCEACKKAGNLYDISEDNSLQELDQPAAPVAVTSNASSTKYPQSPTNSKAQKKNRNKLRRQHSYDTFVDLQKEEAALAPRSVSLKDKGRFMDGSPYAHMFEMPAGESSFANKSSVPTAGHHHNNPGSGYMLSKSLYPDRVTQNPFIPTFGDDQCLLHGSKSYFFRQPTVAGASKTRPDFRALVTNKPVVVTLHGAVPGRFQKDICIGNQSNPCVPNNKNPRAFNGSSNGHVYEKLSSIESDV
Method: Assessment of NMDA Antagonist Potency In Vitro by Measurement of Intracellular Calcium Concentration with a Plate Reader Fluorimeter in Rat Cortical Cell Culture
The cultures were used for the intracellular calcium measurements after 3-7 days in vitro. […] Before the measurement the cells were loaded with a fluorescent Ca^2+-sensitive dye, Fluo-4/AM (2 μM). To stop loading the cells were washed twice with the solution used for the measurement (140 mM NaCl, 5 mM KCl, 2 mM CaCl2, 5 mM HEPES, 5 mM HEPES-Na, 20 mM glucose, 10 μM glycine, pH=7.4). After washing, the test compounds were added to the cells in the above solution (90 μl well). Intracellular calcium measurements were carried out with a plate reader fluorimeter: elevation of Fluo-4-fluorescence and so, intracellular calcium concentration was induced by application of 40 μM NMDA. Inhibitory potency of the test compounds was assessed by measuring the reduction in the calcium elevation in the presence of different concentrations of the compounds.
(§1) Dose-response curves and IC50-values were calculated using data derived from at least three independent experiments. Inhibitory potency of a compound at a single concentration point was expressed as percent inhibition of the NMDA response. Sigmoidal concentration-inhibition curves were fit to the data and IC50 values were determined as the concentration that produces half of the maximal inhibition caused by the compound.

[2] = biological target: T2, recombinant NMDA receptors NR1/NR2A (HEK293 cells) (Homo sapiens, UniProt Q12879); assay: Inhibition of NMDA evoked cytosolic calcium elevation in HEK293 cells transfected with NR1/NR2A; type: cell-based
T2 construct: expressed in transfected cells
T2 sequence (Q12879 23-1464, other chains not shown): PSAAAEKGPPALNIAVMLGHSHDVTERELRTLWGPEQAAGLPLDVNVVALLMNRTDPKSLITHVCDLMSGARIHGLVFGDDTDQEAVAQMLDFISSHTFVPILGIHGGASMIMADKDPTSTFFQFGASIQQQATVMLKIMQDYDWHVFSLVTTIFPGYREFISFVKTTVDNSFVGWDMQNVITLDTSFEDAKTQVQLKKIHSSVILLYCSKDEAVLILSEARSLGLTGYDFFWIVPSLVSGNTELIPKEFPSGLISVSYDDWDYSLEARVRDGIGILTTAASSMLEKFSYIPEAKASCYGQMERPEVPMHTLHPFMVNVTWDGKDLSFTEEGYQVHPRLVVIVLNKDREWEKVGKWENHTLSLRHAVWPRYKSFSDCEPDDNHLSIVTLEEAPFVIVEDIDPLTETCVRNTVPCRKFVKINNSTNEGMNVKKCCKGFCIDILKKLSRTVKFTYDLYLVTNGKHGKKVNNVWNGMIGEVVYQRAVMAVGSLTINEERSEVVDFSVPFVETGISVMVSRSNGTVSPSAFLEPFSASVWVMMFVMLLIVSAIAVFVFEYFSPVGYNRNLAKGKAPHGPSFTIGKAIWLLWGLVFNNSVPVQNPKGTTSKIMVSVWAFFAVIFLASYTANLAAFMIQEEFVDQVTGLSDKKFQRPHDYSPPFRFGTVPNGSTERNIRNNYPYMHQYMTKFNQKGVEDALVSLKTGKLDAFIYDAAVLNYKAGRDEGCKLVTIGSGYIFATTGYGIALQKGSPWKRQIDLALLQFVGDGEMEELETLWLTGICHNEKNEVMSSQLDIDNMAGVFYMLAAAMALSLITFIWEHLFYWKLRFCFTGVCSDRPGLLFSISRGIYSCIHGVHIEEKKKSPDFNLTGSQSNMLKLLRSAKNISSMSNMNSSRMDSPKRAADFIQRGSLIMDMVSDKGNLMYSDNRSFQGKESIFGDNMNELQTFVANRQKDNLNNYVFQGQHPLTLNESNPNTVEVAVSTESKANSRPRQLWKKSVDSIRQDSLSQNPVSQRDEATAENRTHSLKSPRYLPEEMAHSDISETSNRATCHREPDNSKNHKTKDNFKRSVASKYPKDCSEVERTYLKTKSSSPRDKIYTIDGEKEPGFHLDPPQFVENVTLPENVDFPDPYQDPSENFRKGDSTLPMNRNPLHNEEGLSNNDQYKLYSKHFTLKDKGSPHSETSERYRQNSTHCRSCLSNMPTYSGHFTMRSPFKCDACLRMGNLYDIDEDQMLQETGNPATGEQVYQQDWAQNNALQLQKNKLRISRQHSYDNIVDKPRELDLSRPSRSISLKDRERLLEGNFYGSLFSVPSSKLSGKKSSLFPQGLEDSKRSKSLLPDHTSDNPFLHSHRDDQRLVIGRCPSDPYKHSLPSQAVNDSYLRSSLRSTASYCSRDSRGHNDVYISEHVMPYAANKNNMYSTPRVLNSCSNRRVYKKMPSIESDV
Method: Expression of Recombinant NMDA Receptors
(1997); Neurochemistry International, 43, 19-29. (2003)]. […] Compounds were tested for their inhibitory action on NMDA evoked cytosolic calcium elevations in fluorescent calcium measurements. Studies were performed 48-72 h after addition of the inducing agent. Ketamine (500 μM) was also present during the induction in order to prevent cytotoxicity.
as §1

NMRI mice [3] = assay: Mouse formalin test, second phase, oral administration; type: in vivo; settings: 15 min before formalin, licking 20 to 25 min after injection
Method: Injection of diluted formalin into the hind paw of rats or mice is known to elicit a biphasic pain-related behaviour measured as time spent by licking/biting of the injured paw. The second phase is generally defined as pain related events detected in the 15-60 min. time interval after formalin injection, with peak activity at around 30 min. It is known that NMDA receptors are involved in the second phase of response to formalin injection and this behavioural response is sensitive to blockade of NMDA receptors [Dickenson, A. and Besson J.-M. (Editors): Chapter 1, pp. 6-7: Animal models of Analgesia; and Chapter 8, pp. 180-183. Mechanism of Central Hypersensitivity: Excitatory Amino Acid Mechanisms and Their Control—In Pharmacology of Pain. Springer-Verlag (Berlin) 1997.] Therefore, we used the second phase of formalin test to characterize the efficacy of compounds in vivo. Inhibition of the second phase of response is considered to indicate an analgesic effect against chemically-induced persistent pain [Hurker, S., et al.: Formalin Test in Mice, a Useful Technique for Evaluating Mild Analgesics, Journal of Neuroscience Methods, 14 (1985) 69-76.]
Male NMRI […] (20-25 g) were used. Prior to the experiment any solid food was withdrawn for approx. 16 hours but the animals had free access to 20% glucose solution. The animals were allowed 1 hour acclimatization period in a glass cylinder (cc. 15 cm in diameter), then moved to an identical cylinder with a mirror placed behind to facilitate observation. The test substances were suspended in 5% tween-80 (10 ml per kg body weight). and administered orally by gavage 15 min before the formalin injection (20 μl of 1% formalin in 0.9& saline injected subcutaneously into the dorsal surface of the right hindpaw). The time spent by licking and biting of the injected paw was measured from 20 to 25 min. after the formalin injection.

NMRI mice [4] = assay: Spontaneous locomotor activity (LMA) in mice; type: in vivo, mouse; settings: oral
Method: Measurement of Spontaneous Locomotor Activity in Mice
Male NMRI mice weighing 20-22 g were used in the experiments.
Spontaneous locomotor activity was measured in a four-channel activity monitor. The apparatus consisted of acrylic cages (43 cm×43 cm×32 cm) equipped with 2×16 pairs of photocells along all the bottom axis of the cage. An additional array of photocells (16 pairs) was placed along two opposite sides of the cage at the height of 10 cm in order to detect rearing responses.
Experimental groups consisted of 10 animals. Thirty minutes after the oral administration of the test compound or vehicle (tween-80), the animals were individually placed in one of four cages for one hour. Horizontal and vertical movements were determined as the number of beam interruptions for one hour at 15 ruin intervals.
Mean±SE of horizontal activity data of each group was calculated then percentual changes compared to the control (vehicle-treated) group were determined. A compound was considered to cause locomotor stimulation when its effect exceeded 50% increase in beam interruptions. Consequently, doses defined as free from stimulatory action (LMAfree) produced less than 50% increase.

[5] = cited from earlier work
[6] = 40 μM NMDA, read-out: Rat cortical cells (NR2B) appr. IC50
[7] = other group, Neuropharmacology 38 (1999)
[8] = J. Pharmacol. Exp. Ther. 302 (2002), Behav. Pharmacol. 14 (2003)

Compound: COc1ccc(C=C2CCN(C(=O)C(=O)Nc3ccc(NS(C)(=O)=O)cc3)CC2)cc1 [Compound 40]
- IC50 [1, 6]: < 50 nM
- inhibition at 15 µM ([2]; HEK293): < 30%

Compound: Cc1ccc(CC2CCN(C(=O)C(=O)Nc3ccc4c(c3)CC(=O)N4)CC2)cc1 [B, 2-[4-[4-methyl-benzyl)-piperidin-1-yl]-2-oxo-N-(2-oxo-2,3-dihydro-1H-indol-5-yl)-acetamide]
- ED50 (NMRI mice [3]): 0.48 mg/kg
- LMA % increase (NMRI mice [4]; dose 3.75 mg/kg): 72%
- LMA % increase (NMRI mice [4]; dose 7.5 mg/kg): 141%

Compound: C[C@@H]([C@@H](O)c1ccc(O)cc1)N1CCC(O)(c2ccccc2)CC1 [CP-101,606, (1S,2S)-1-(4-hydroxyphenyl)-2-(4-hydroxy-4-phenylpiperidine-1-yl)-1-propanol]
- ED50 (NMRI mice [3]): > 20 mg/kg
- effect on locomotor activity [5, 7]: no such effect was observed
- locomotor stimulating effect ([5]; up to 56 mg/kg s.c. and 100 mg/kg i.p., Soc. Neurosc. Abstr. 21 (1995)): Lack of locomotor stimulating effect

Compound: CS(=O)(=O)Nc1ccc(NC(=O)C(=O)N2CCC(=Cc3ccccc3)CC2)cc1 [Compound 10]
- IC50 [1, 6]: 50 to 500 nM

Compound: O=C1Cc2cc(NC(=O)C(=O)N3CCC(=Cc4ccc(Cl)cc4)CC3)ccc2N1 [Compound 14]
- IC50 [1, 6]: 50 to 500 nM

Compound: Cc1ccc(C=C2CCN(C(=O)C(=O)Nc3ccc4[nH]c(=O)sc4c3)CC2)cc1 [Compound 25]
- IC50 [1, 6]: < 50 nM

Compound: O=C(Nc1ccc2[nH]c(=O)oc2c1)C(=O)N1CCC(Cc2ccccc2)CC1 [A, 2-(4-benzyl-piperidin-1-yl)-2-oxo-N-(2-oxo-2,3-dihydro-benzoxazol-6-yl)-acetamide]
- ED50 (NMRI mice [3]): 0.85 mg/kg
- LMA % increase (NMRI mice [4]; dose 1 mg/kg): 34* %
- LMA % increase (NMRI mice [4]; dose 3 mg/kg): 62%

Compound: Cc1ccc(C=C2CCN(C(=O)C(=O)Nc3ccc(NS(C)(=O)=O)cc3)CC2)cc1 [Compound 30]
- IC50 [1, 6]: 50 to 500 nM

Compound: O=C(Nc1ccc2[nH]c(=O)[nH]c2c1)C(=O)N1CCC(=Cc2ccc(Cl)cc2)CC1 [Compound 12]
- IC50 [1, 6]: < 50 nM

Compound: C[C@@H](CN1CCC(Cc2ccccc2)CC1)[C@@H](O)c1ccc(O)cc1 [Ro 25.6981, R—(R*,S*)-1-(4-hydroxyphenyl)-2-methyl-3-[4-(phenylmethyl)piperidine-1-yl]-1-propanol]
- inhibition at 10 µM ([2]; HEK293, read-out: NR1-3/NR2A % inhibition at 10 μM): 1%
- ED50 (NMRI mice [3]): > 20 mg/kg
- effect on locomotor activity [5, 8]: increase locomotor activity
- effect on locomotor activity [5, 7]: no such effect was observed

Compound: O=C(CCN1CCC(Cc2ccc(F)cc2)CC1)c1ccc2[nH]c(=O)oc2c1 [EMD 95885, reference compound]
- IC50 ([1]; reference compounds, read-out: rat cortical cells IC50): 35 nM
- NR1-3/NR2A % inhibition at 10 μM ([2]; 10 μM): 0.1%

Compound: Cc1ccc(C=C2CCN(C(=O)C(=O)Nc3ccc4[nH]c(=O)[nH]c4c3)CC2)cc1 [Compound 22]
- IC50 [1, 6]: < 50 nM
- inhibition at 15 µM ([2]; HEK293): < 30%

Compound: CS(=O)(=O)Nc1ccc(NC(=O)C(=O)N2CCC(=Cc3ccc(Cl)cc3)CC2)cc1 [Compound 20]
- IC50 [1, 6]: 50 to 500 nM

Compound: O=C(Nc1ccc2[nH]c(=S)oc2c1)C(=O)N1CCC(=Cc2ccccc2)CC1 [Compound 6]
- IC50 [1, 6]: 50 to 500 nM

Compound: Cc1ccc(C=C2CCN(C(=O)C(=O)Nc3ccc4[nH]c(=O)n(C)c4c3)CC2)cc1 [Compound 23]
- IC50 [1, 6]: 50 to 500 nM

Compound: O=C(Nc1ccc2[nH]c(=S)oc2c1)C(=O)N1CCC(=Cc2ccc(Cl)cc2)CC1 [Compound 16]
- IC50 [1, 6]: 50 to 500 nM

Compound: COc1ccc(C=C2CCN(C(=O)C(=O)Nc3ccc4[nH]c(=O)[nH]c4c3)CC2)cc1 [Compound 32]
- IC50 [1, 6]: < 50 nM
- inhibition at 15 µM ([2]; HEK293): < 30%

Compound: O=C1Cc2cc(NC(=O)C(=O)N3CCC(=Cc4ccc(F)cc4)CC3)ccc2N1 [Compound 42]
- IC50 [1, 6]: 500 to 1000 nM

Compound: Cc1ccc(C=C2CCN(C(=O)C(=O)Nc3ccc4[nH]c(=S)oc4c3)CC2)cc1 [Compound 26]
- IC50 [1, 6]: 50 to 500 nM

Compound: Cn1c(=O)[nH]c2ccc(NC(=O)C(=O)N3CCC(=Cc4ccc(Cl)cc4)CC3)cc21 [Compound 13]
- IC50 [1, 6]: 50 to 500 nM

Compound: O=C(Nc1ccc2[nH]c(=O)oc2c1)C(=O)N1CCC(=Cc2ccc(Cl)cc2)CC1 [Compound 11]
- IC50 [1, 6]: < 50 nM

Compound: Cn1c(=O)[nH]c2ccc(NC(=O)C(=O)N3CCC(=Cc4ccccc4)CC3)cc21 [Compound 3]
- IC50 [1, 6]: 50 to 500 nM

Compound: C[C@]12N[C@H](Cc3ccccc31)c1ccccc12 [MK-801, (+)-5-Methyl-10,11-dihydro-5H-dibenzo[a,d]cyclohepten-5,10-imine]
- ED50 (NMRI mice [3]): 0.15 mg/kg
- LMA % inc. (NMRI mice [4]; dose 0.1 mg/kg): 114%
- LMA % inc. (NMRI mice [4]; dose 0.3 mg/kg): 217%

Compound: O=C1COc2cc(NC(=O)C(=O)N3CCC(=Cc4ccccc4)CC3)ccc2N1 [Compound 7]
- IC50 [1, 6]: 500 to 1000 nM

Compound: Cc1ccc(C=C2CCN(C(=O)C(=O)Nc3ccc4c(c3)OCC(=O)N4)CC2)cc1 [Compound 27]
- IC50 [1, 6]: 50 to 500 nM

Compound: O=C(Nc1ccc2[nH]c(=O)oc2c1)C(=O)N1CCC(=Cc2ccc(F)cc2)CC1 [Compound 41]
- IC50 [1, 6]: < 50 nM
- inhibition at 15 µM ([2]; HEK293): < 30%

Compound: COc1ccc(C=C2CCN(C(=O)C(=O)Nc3ccc4[nH]c(=O)n(C)c4c3)CC2)cc1 [Compound 33]
- IC50 [1, 6]: 50 to 500 nM

Compound: O=C(Nc1ccc2[nH]c(=O)sc2c1)C(=O)N1CCC(=Cc2ccc(Cl)cc2)CC1 [Compound 15]
- IC50 [1, 6]: < 50 nM

Compound: O=C1COc2cc(NC(=O)C(=O)N3CCC(=Cc4ccc(Cl)cc4)CC3)ccc2N1 [Compound 17]
- IC50 [1, 6]: 500 to 1000 nM

Compound: O=C(Nc1ccc2[nH]c(=O)sc2c1)C(=O)N1CCC(=Cc2ccccc2)CC1 [Compound 5]
- IC50 [1, 6]: < 50 nM
- inhibition at 15 µM ([2]; HEK293): < 30%

Compound: O=C(Nc1ccc2[nH]c(=O)oc2c1)C(=O)N1CCC(=Cc2ccccc2)CC1 [Compound 1, 2-(4-Benzylidene-piperidine-1-yl)-2-oxo-N-(2-oxo-2,3-dihydro-benzooxazol-6-yl)-acetamide]
- IC50 [1, 6]: < 50 nM
- inhibition at 15 µM ([2]; HEK293): < 30%
- ED50 (NMRI mice [3]): 1 mg/kg
- LMA % increase (NMRI mice [4]; dose 60 mg/kg): 35* %
- LMA % increase (NMRI mice [4]; dose 120 mg/kg): 69%

Compound: O=c1[nH]c2ccc([S+]([O-])CCN3CCC(Cc4ccc(F)cc4)CC3)cc2o1 (stereo not shown) [CI-1041, 6-{2-[4-(4-fluoro-benzyl)-piperidin-1-yl]-ethanesulfinyl}-3H-benzooxazol-2-one]
- ED50 (NMRI mice [3]): 2.4 mg/kg
- LMA % inc. (NMRI mice [4]; dose 10 mg/kg): 137%

Compound: Cc1ccc(CC2(O)CCN(CCOc3ccc(O)cc3)CC2)cc1 [Ro 63-1908]
- effect on locomotor activity [5, 8]: increase locomotor activity
